In PubChem BioAssay AID1963428 (Molecular Pharmacology Branch, DTP, NCI, 2024):
Several values for one entry are separate records, joined by “and”; a condition that tells them apart may be missing. Identical values can stand only once.

System: 171881-019-R-J1-PDC complex spheroid growth, % test/control
Assay: Anticancer human tumor 171881-019-R-J1-PDC patient-derived invasive breast carcinoma cell line growth inhibition [Asc]
Details: for viability, T/C: stronger effect = lower value
Procedure: Multicellular complex tumor spheroid response to apoptosis pathway targeting inhibitors Alrizomadlin, Pelcitoclax, and Dasminapant in combination with a variety of drugs and investigational agents in selected tumor cell lines
The MDM2 inhibitor alrizomadlin, the Bcl-2/Bcl-xL inhibitor pelcitoclax, and the IAPs inhibitor dasminapant were evaluated both individually and in combination with standard of care and investigational anticancer small molecules within a complex spheroid model of solid tumors. . Complex spheroids include a stromal component modeled by human endothelial cells (HUVEC) and fibroblasts modeled by human mesenchymal stem cells (MSCs). The concentration ranges selected for each drug and investigational agent were based upon clinically achievable concentrations if the clinical Cmax of the agent was known.
Compounds. The drugs and investigational agents: alrizomadlin (APG-115; NSC831270), pelcitoclax (APG-1252; NSC835773), dasminapant (APG-1387;NSC834197), TAK-243 (NSC785004), copanlisib (NSC809693), olaparib (NSC753686), talazoparib (NSC767125), cobimetinib (NSC 768068), eltanexor (KPT-8602, NSC 794443), abemaciclib (NSC 768073), sotorasib (NSC818433), adagrasib (NSC 831453), MRTX-1133 (NSC 836407), Iadademestat (ORY1001, NSC 806812), and RMC-4630 (NSC839698), were obtained from the NCI Developmental Therapeutics Program Chemical Repository. The FDA-approved anticancer drug set is available from the Developmental Therapeutics Program at https://dtp.cancer.gov/organization/dscb/obtaining/available plates.htm. […] The stock solutions were prepared in dimethyl sulfoxide (DMSO, Sigma-Aldrich, St. Louis, MO, cat. D2650) at 800-fold the tested concentration and stored at -70 degrees C prior to their use. All drugs and investigational agents were tested over a range starting from a high concentration at or near the clinical Cmax and decreasing in half-log increments. If the clinical Cmax for an agent had not been determined, the highest concentration tested was 10 microM.
The patient-derived cancer (PDC) cell lines include five colon adenocarcinomas: 186277-243-T-J2-PDC, 616215-338-R-J1-PDC, 439559-082-T-J2-PDC, 463943-066-T-J2-PDC, and 519858-162-T-J1-PDC; three pancreatic carcinomas: 323965-272-R-J2-PDC, 521955-158-R6-J3-PDC, and 521955-158-R2-J5-PDC; two uterine sarcomas: 327498-152-R-J2-PDC and 993429-296-R-J1-PDC; two rhabdomyosarcomas: 755483-174-R-J1-PDC and 772245-204-R-J1-PDC; two soft tissue sarcomas: 126254-015-R-J1-PDC and 494315-158-R-J1-PDC; two malignant fibrous histiocytomas: 317291-083-R-J1-PDC and 596521-263-R-J1-PDC; two breast carcinomas: 171881-019-R-J1-PDC and 885512-296-R-J2-PDC; and one ovarian carcinoma: 6556581-035-R-J-PDC were obtained from the NCI PDMR, (https://pdmr.cancer.gov). The established cell lines HSSY-2 synovial sarcoma (RRID:CVCL 8719), SYO-1 synovial sarcoma (RRID:CVCL_7146), MPNST malignant peripheral neural sheath tumor were obtained from the Sloan Kettering Institute. The following established cell lines were purchased from the American Type Culture Collection (ATCC, Manassas, VA), Sor the received from the NCI repository:, PANC-1 pancreatic carcinoma (CRL-1469, RRID:CVCL_0480), OVCAR-5 ovarian carcinoma (RRID:CVCL_1628), OVCAR-8 ovarian carcinoma (RRID:CVCL_1629), , MCF-7 breast carcinoma (CRL-12584, RRID:CVCL_0031), MDA-MB-231 breast carcinoma (CRL-12532, RRID:CVCL_0062), NCI-H1876 small cell lung carcinoma (CRL-5902, RRID:CVCL_1503), NCI-H510A small cell lung carcinoma (HTB-184, RRID:CVCL_1565), NCI-H1417 (CRL-5869, RRID:CVCL_1469), and NCI-H196 small cell lung carcinoma (CRL-5823, RRID:CVCL_1509). Dr. Peter Houghton (Greehey Children's Cancer Research Institute, University of Texas Health Science Center, San Antonio, TX) provided Rh-18 rhabdomyosarcoma (RRID:CVCL_1659). Pooled donor human umbilical vein endothelial cells (HUVEC, Lonza, cat. CC-2519) and human mesenchymal stem cells (hMSC, Lonza, cat. PT-2501) were purchased from Lonza (Walkersville, MD).
Cell Culture. […]

[1] = compound alone, run of 09/27/2022
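Throughout, for viability, T/C: spheroids exposed to compounds for 7 days.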

SMILES | IC50 (curve of compound) | viability, T/C (compound 0.0316 µM) | viability, T/C (compound 0.1 µM) | viability, T/C (compound 0.316 µM) | viability, T/C (compound 1 µM) | viability, T/C (compound 10 µM) | viability, T/C (compound 0.00316 µM) | viability, T/C (compound 0.01 µM) | also measured
C#Cc1c(F)ccc2cc(O)cc(-c3ncc4c(N5CC6CCC(C5)N6)nc(OCC56CCCN5CC(F)C6)nc4c3F)c12 (configuration not stated) | > 10000 nM | 105% and 82.7% and 103% | 107% and 98% and 102% | 129% and 115% and 117% | 229% and 139% and 208% | 281% and 162% and 190% |  |  | viability, T/C (compound 3.16 µM): 271% and 153% and 240%
C=CC(=O)N1CCN(c2nc(=O)n(-c3c(C)ccnc3C(C)C)c3nc(-c4c(O)cccc4F)c(F)cc23)C(C)C1 (configuration not stated) | > 10000 nM | 94.2% and 93.7% and 99.4% | 95.4% and 109% and 106% | 90.9% and 107% and 99.9% | 89.2% and 92.1% and 88.4% | 71.1% and 78.1% and 83.2% |  |  | viability, T/C (compound 3.16 µM): 80.5% and 93.2% and 83.7%
CCN1C(C(=O)NC23CCC(C(=O)O)(CC2)CC3)C(c2cccc(Cl)c2F)C2(C(=O)Nc3cc(Cl)ccc32)C12CCCCC2 (configuration not stated) | > 3000 nM |  |  |  |  |  |  |  | viability, T/C (compound 0.00949 µM): 76.5% and 112%; IC50 [1]: > 3000 nM
COc1c(OCCCN2CCOCC2)ccc2c3n(c(=NC(=O)c4cnc(N)nc4)nc12)CCN3 | 33.9 nM and 30.9 nM and 24.8 nM | 50.5% and 46.9% and 61.2% | 17.4% and 14.1% and 19.9% | 3.09% and 3.26% and 4.21% | 1.31% and 1.02% and 4.37% |  | 148% and 152% and 226% | 115% and 134% and 153% | 
Cc1c(S(C)(=O)=O)c(-c2cc(F)cc(N3CCN(c4ccc(NS(=O)(=O)c5ccc(NC(CCN6CCC(C(=O)OCCCP(=O)(O)O)CC6)CSc6ccccc6)c(S(=O)(=O)C(F)(F)F)c5)cc4)CC3)c2)c(-c2ccc(Cl)cc2)n1C(C)C (configuration not stated) |  |  | 98.9% [middle of 14 runs] |  |  | 175% [middle of 14 runs] |  |  | IC50 [1]: > 10000 nM
Cc1nc(N2CCC3(CC2)COC(C)C3N)c(CO)nc1Sc1ccnc(N)c1Cl (configuration not stated) | > 3000 nM |  |  |  |  |  |  |  | viability, T/C (compound 0.00949 µM): 123% and 94.5% and 97.3%; viability, T/C (compound 0.03 µM): 137% and 100% and 92%; viability, T/C (compound 0.0949 µM): 214% and 125% and 157%; viability, T/C (compound 0.3 µM): 268% and 160% and 188%; viability, T/C (compound 0.949 µM): 225% and 150% and 152%; viability, T/C (compound 3 µM): 168% and 117% (2×)
Cn1ncnc1[C@H]1c2n[nH]c(=O)c3cc(F)cc(c23)N[C@@H]1c1ccc(F)cc1 | > 100 nM | 86.6% and 86.8% and 99.6% | 91.4% and 81% and 106% |  |  |  | 90% and 88.5% and 79.2% | 92.8% and 101% and 84.1% | viability, T/C (compound 0.000316 µM): 81.3% and 100% and 94.1%; viability, T/C (compound 0.001 µM): 86.7% and 107% and 93%
NC(=O)C(=Cn1cnc(-c2cc(C(F)(F)F)cc(C(F)(F)F)c2)n1)c1cncnc1 | 23.4 nM and 35.4 nM and 66.1 nM |  |  |  |  |  |  |  | viability, T/C (compound 0.000949 µM): 83.2% and 95.6% and 98.7%; viability, T/C (compound 0.003 µM): 90.3% and 107% and 115%; viability, T/C (compound 0.00949 µM): 73.5% and 95.6% and 128%; viability, T/C (compound 0.03 µM): 44.2% and 56.6% and 124%; viability, T/C (compound 0.0949 µM): 7.59% and 10.6% and 19.6%; viability, T/C (compound 0.3 µM): 2.48% and 3.46% and 4.69%
NC1CCC(NC2CC2c2ccccc2)CC1 (configuration not stated) | > 100 nM | 76.2% and 94.8% and 77.5% | 75.7% and 109% and 79.7% |  |  |  | 94.6% and 94.2% and 80.9% | 92.8% and 95.6% and 87.6% | viability, T/C (compound 0.000316 µM): 97.1% and 106% and 92%; viability, T/C (compound 0.001 µM): 87.7% and 98.6% and 88.7%
O=C(c1ccc(F)c(F)c1Nc1ccc(I)cc1F)N1CC(O)([C@@H]2CCCCN2)C1 | 545 nM and 344 nM and > 1000 nM | 121% and 111% and 153% | 150% and 136% and 218% | 65.5% and 51.4% and 121% | 32.6% and 32.5% and 58.2% |  | 86.7% and 86.1% and 88.1% | 104% and 85.4% and 111% | 

Second part, led by results:

IC50 (curve of compound) | SMILES | viability, T/C (compound 0.0316 µM) | viability, T/C (compound 0.1 µM) | viability, T/C (compound 0.316 µM) | viability, T/C (compound 1 µM) | viability, T/C (compound 10 µM) | viability, T/C (compound 0.00316 µM) | viability, T/C (compound 0.01 µM) | also measured
5430 nM and 5720 nM and 5490 nM | C=C(F)C(=O)N1CCN(c2nc(OCC3CCCN3C)nc3c2CCN(c2cccc4cccc(Cl)c24)C3)CC1CC#N (configuration not stated) | 85.9% and 113% and 104% | 86% and 98.9% and 99.5% | 116% and 99.8% and 93.9% | 82.4% and 111% and 84.5% | 0.42% and 0.28% and 0.66% |  |  | viability, T/C (compound 3.16 µM): 98.7% and 103% and 95.5%
> 1000 nM | CCN1CCN(Cc2ccc(Nc3ncc(F)c(-c4cc(F)c5nc(C)n(C(C)C)c5c4)n3)nc2)CC1 | 97.8% and 111% and 105% | 109% and 104% and 128% | 110% and 120% and 131% | 130% and 141% and 128% |  | 97.1% and 108% and 114% | 79.1% and 101% (2×) | 
> 1000 nM | CNC(C)C(=O)NC1CN(S(=O)(=O)c2cccc(S(=O)(=O)N3CCC4CCC(C(=O)NC(c5ccccc5)c5ccccc5)N4C(=O)C(NC(=O)C(C)NC)C3)c2)CCC2CCC(C(=O)NC(c3ccccc3)c3ccccc3)N2C1=O (configuration not stated) |  | 95.1% [middle of 15 runs] |  |  |  | 102% and 97.8% |  | IC50 (compound alone, run of 10/03/2022): > 1000 nM
> 10000 nM | O=C(c1cc(Cc2n[nH]c(=O)c3ccccc23)ccc1F)N1CCN(C(=O)C2CC2)CC1 | 88.5% and 96.6% and 106% | 90.8% and 103% and 111% | 93.1% and 101% and 107% | 95.5% and 86% and 102% | 92.6% and 79.8% and 122% |  |  | viability, T/C (compound 3.16 µM): 87.9% and 87.8% and 107%
